The source of these data is patent publication US20090054507A1, “CONTROL OF MALIGNANT CELLS BY KINASE INHIBITION” (CLEVELAND STATE UNIVERSITY, priority 2006, published 2009).

One test deals with MEG-01 cells. The test can be described thus: RPE-CD41a (αIIbβ3 integrin) flow cytometric immunophenotyping, maturation of MEG-01. Type of test: cell-based, human. The settings on record: 10 μM DMAT vs control untreated. As to the method:
Flow cytometric analysis. Cells were analyzed using a FACSCalibur flow cytofluorometer (Becton-Dickinson), with CellQuestPro ver. 3.3 software. The data was further analyzed with FlowJo ver. 6.2, and WinMDI 2.8 software. Proper gating was performed to characterize each cell population (MEG-01 cells and platelets). The population that corresponds to platelets (small, granulated particles), is PI negative because thrombocytes are anucleated cells (only the viable cells were considered) and were distinguished by their capacity to become activated, undergoing shape change in response to agonist and to show phosphatidylserine (PS) exposure when activated. Platelets were further separated from the megakaryocytic cells, by differential centrifugation, considering the size difference between these cell populations (1-5 μm for platelets and 35-150 μm for megakaryocytic cell line MEG-01) and analyzed separately. Voltage and channels settings were adjusted accordingly. Analyzed values were obtained with WinMDI ver. 2.8.
RPE-CD41a immunophenotyping of MEG-01 cells. CD41a is the antigen for αIIbβ3 complex and it is found on platelets and platelet precursors, including MEG-01 cell line. αIIbβ3 complex is a marker of differentiation for megakaryocytes. […] Cells were counted and adjusted to 10^6 cells/ml and 20 μl of RPE-CD41a was used for 180 μl cell suspension. […]

The test system of a further test is MCF-7 xenografts. The test can be described thus: In vivo therapy of MCF-7 xenografts, tumor volume. Set-up: species or system mice. From the text: (§1) Creation of the xenografts MCF-7, SW-480 and WM-164. Immunodeficient male and female athymic nude nu/nu mice were used, provided and housed by Dr. Lindner, DJ from Taussig Cancer Center, Cleveland Clinic and Case Western Reserve University. Mice were checked every day. Mice were housed in filtered air flow cabinets with autoclaved bedding at a density of 5 mice/cage. They were fed autoclaved Purina Lab Rodent Chow® 5010 and HCl-acidified distilled water ad libitum and were placed in rooms with controlled temperature, humidity and 12-hr light-dark cycles. Procedures involving animals and their care were conducted in conformity with the institutional guidelines that are in compliance with national and international laws and policies (EEC Council Directive 86/609, OJL 358, Dec. 1, 1987, and the National Institutes of Health Guide for the Care and Use of Laboratory, Animals, NIH Publication 85-23, 1985).
(§2) For engraftment, cells in cell culture media were injected. […] Cells were counted with a hemacytometer using Trypan blue (only live cells were counted). […]
In vivo therapy with DMAT of MCF-7 xenografts. […] Tumor diameters were measured using a caliper and tumor volume was calculated using the prolate-spheroid formula. […]

A further test concerns SW-480 xenografts. The test can be described thus: In vivo therapy of SW-480 xenografts, tumor volume. On the set-up: species or system mice.
From the text: as §1, §2
In vivo therapy with DMAT of SW-480 xenografts. […] Tumor diameters were measured using a caliper and tumor volume was calculated using the prolate-spheroid formula. […]

The test system of test [1] is WM-164 cells. The test can be described thus: Proliferation assay in vitro, WM-164. Type of test: cell-based, human. The note with it: for cell counts: four days. From the text:
Viability (proliferation) assay, Trypan blue exclusion. Cells were counted using a Neubauer hemacytometer.

The test system of test [2] is WM-164 cells. The test can be described thus: Anchorage independence in soft agar, WM-164. Type of test: cell-based, human. The note with it: DMAT 10 μM, one week.
For a further test, the system named is WM-164 xenografts. The test can be described thus: In vivo therapy of WM-164 xenografts, tumor volume. On the set-up: species or system mice.
From the text: as §1, §2
In vivo therapy with DMAT of WM-164 xenografts. […] Tumor diameters were measured using a caliper and tumor volume was calculated using the prolate-spheroid formula. […]

In the next test the test system is tumors of HT1376 cells. The test can be described thus: Murine xenograft of HT1376 cells, tumor volume. Format: in vivo, mice. The settings on record: DMAT at effective dosage levels (in DMSO) per animal per day, 36 days. As to the method:
FIG. 95 illustrates the effect of administration of DMAT s compared to a control over a time period of 36 days. FIG. 95 is a graph of a murine xenograft treated with DMAT, compared to a control. Mice with tumors of HT1376 cells were treated with DMAT at effective dosage levels (in DMSO) per animal per day. The daily animal weight was averaged at 32.5 g at the start of treatment. Tumors were measured daily and tumor volumes were calculated based upon a prolate spheroid model. FIG. 95 illustrates the significant benefits of treatment with DMAT (circles) as compared to the control (squares). Although the tumor size increased for HT1376 cells treated with DMAT, the tumor volume remained approximately one-half of the size as that associated with the untreated HT1376 cells.

The mark [3] stands for this setting: small tumors remained at the end of the treatment.

In the case of `CN(C)c1nc2c(Br)c(Br)c(Br)c(Br)c2[nH]1` [DMAT, 2-dimethylamino-4,5,6,7-tetrabromo-1H-benzimidazole], in the test with MEG-01 cells, the “maturation level (αIIbβ3 integrin expression, RPE-CD41a)” value is “significant maturation levels”. Further, the tumor volume entry is “remarkably stable size and nearly no increase” with MCF-7 xenografts (DMAT 10 mg/kg (in DMSO) per day, 13 day period, control about 50 to about 1750 mm^3); “only a minor increase in tumor volume” in the test with SW-480 xenografts (DMAT 40 mg/kg (in DMSO) per day, thirteen days, control about 260 to about 1800 mm^3); “only a slight increase in tumor volume” in the test on WM-164 xenografts (DMAT 10 mg/kg (in DMSO) per day, fourteen days, control about 50 to about 1000 mm^3). The “response of xenograft tumors to treatment (summary)” value with MCF-7 xenografts (mouse, in vivo) is “tumor ablation”; with SW-480 xenografts (setting [3]), “significant reduction in tumor volume”; in the test on WM-164 xenografts (setting [3]), “significant reduction in tumor volume”. Moreover, the “sensitivity of proliferation to DMAT compared with MCF-7 and SW-480” value in the test on WM-164 cells [1] was “more resistant”. The cell counts entry in the test on WM-164 cells [1] (10 μM DMAT) is “cell counts between those of the control and those of the WM-164 cells treated with 20 μM”; in the test on WM-164 cells [1] (20 μM DMAT) it was “lowest cell counts”. Further, in the test on WM-164 cells [2], the “colonies in soft agar” value was “much smaller and fewer colonies”. The “tumor volume relative to untreated HT1376 cells” value with tumors of HT1376 cells is reported as “approximately one-half”.
